Assay results taken from PMC11672316, “Identification of ANXA1 as a Novel Upstream Negative Regulator of Notch1 Function in AML” (Advanced Science, 2024).
Ends that are not written are not given here. Peptide text beside a SMILES is read from it. * marks the point of attachment. Cbz = O=C(OCc1ccccc1)*

Assays:
Assay type in all cases: cell-based, human
[1] = system: NICD; assay: Western blotting of NICD after MG132 treatment; settings: AML cells (KG1a and HL60)
Protocol: (§1) Cells were lysed in a lysis buffer containing 0.5 mM EDTA, 20 mM HEPES and 2% SDS. Samples mixed with SDS-gel loading buffer were loaded onto SDS-PAGE gel and transferred onto polyvinylidene fluoride (PVDF) microporous membranes (Millipore). Membranes were blocked with 5% nonfat milk in TBST (20 mM Tris-HCl, 150 mM NaCl, 0.1% Tween-20 with pH 7.5) for 2 hours and incubated with primary antibodies (Table S6, Supporting Information) at 4°C overnight. The membranes were incubated with a secondary antibody (Table S6, Supporting Information) followed by detection in an imaging system (ChampChemi 910, SageCreation) using the ECL reagent solution (SageCreation).

[2] = system: NICD; assay: Co-immunoprecipitation, NICD-bound ubiquitin; settings: KG1a- and HL60- shANXA1 or shControl cells; MG132 0 or 6 h; Figure 3C
Protocol: For co-immunoprecipitation (Co-IP) assay, the cells were lysed with NP-40 lysis buffer (Beyotime) containing 1 mM PMSF for 30 min at 4°C. The total protein concentrations were measured using BCA protein assay kit (Solarbio) according to the instructions. The lysates were divided into several tubes and precleared by adding protein A/G-agarose (Santa Cruz) for 30 min at 4°C. The samples were centrifuged to remove the precipitation and incubated with Notch1 antibody or normal rabbit IgG (Table S6, Supporting Information) for 2 hours, and then incubated with protein A/G-agarose overnight. The complexes were washed with NP-40 lysis buffer four times before being eluted in SDS-gel loading buffer and detected by western blotting.

[3] = system: p15; assay: Western blotting of p15 after RO4929097 treatment; settings: 24 h, Figure 4D
Protocol: as §1

[4] = system: KG1a-shANXA1 cells; assay: Cell counting proliferation assay, KG1a-shANXA1; settings: 24 h, Figure 4E, three independent experiments
Protocol: (§2) For the cell counting assay, transfected cell lines or parental cells were seeded in a cell culture plate at the same density and cultured with RPMI-1640 medium, which sometimes added drugs. The number of cells was counted by a cell counter (Countstar BioTech IC 1000, Countstar) after indicated time.

[5] = system: HL60-shANXA1 cells; assay: Cell counting proliferation assay, HL60-shANXA1; settings: 24 h, Figure 4E, three independent experiments
Protocol: as §2

[6] = system: KG1a cells; assay: MTT assay, KG1a (FPR blocking or activation); settings: Figure S14, three independent experiments
Protocol: (§3) For Methylthiazolyldiphenyl-tetrazolium bromide (MTT) assay, cells were seeded in a 96-well plate and incubated with drugs or peptides. At the indicated time point, each well was added with 10 μL MTT solution (5 mg mL^-1, Sigma-Aldrich) and then incubated at 37°C in 5% CO2 for 4 hours. The medium was replaced by DMSO with 150 μL to dissolve the formazan crystals.

[7] = system: HL60 cells; assay: MTT assay, HL60 (FPR blocking or activation); settings: Figure S14, three independent experiments
Protocol: as §3

CC(C)C[C@@H](C=O)NC(=O)[C@H](CC(C)C)NC(=O)[C@H](CC(C)C)NC(=O)OCc1ccccc1 [MG132] (Cbz-Leu-Leu-Leu-aldehyde)
NICD expression level ([1]; ANXA1 knockdown group): minimally affected the expression level of NICD in the ANXA1 knockdown group | NICD degradation ([1]; shControl, 3 h): significantly reversed the ANXA1‐induced NICD degradation after 3 h of treatment in the control group | ubiquitin bound to NICD [2]: ubiquitin was bound to NICD significantly in the shControl cells after MG132 treatment rather than ANXA1 knockdown cells

CC(C)(C(=O)NCC(F)(F)C(F)(F)F)C(=O)N[C@@H]1C(=O)Nc2ccccc2-c2ccccc21 [RO4929097]
p15 expression ([3]; HL60 with ANXA1 knockdown): inhibited the expression of p15 in KG1a and HL60 cells with ANXA1 knockdown | p15 expression ([3]; KG1a with ANXA1 knockdown): inhibited the expression of p15 in KG1a and HL60 cells with ANXA1 knockdown | cell proliferation [4]: promoting the proliferation of AML cells | cell proliferation [5]: promoting the proliferation of AML cells

Ac2-26: N-terminal ANXA1 peptide, FPR agonist (Ac-AMVSEFLKQAWFIENEEQEYVQTVK; UniProt P04083 2-26, looked up, fragment)
effect on proliferation [6]: neither the FPR antagonist nor the N‐terminal ANXA1 peptide Ac2‐26 affected the proliferation of AML cells | effect on proliferation [7]: neither the FPR antagonist nor the N‐terminal ANXA1 peptide Ac2‐26 affected the proliferation of AML cells
